Results from patent US8741928B2, “Protected antimicrobial compounds for high temperature applications” (Dow Global Technologies LLC, priority 2010, dated 2014).

Key:
[1] = Analysis of glutaraldehyde release after heat-aging; type: physicochemical; settings: sterile deionized water, molar equivalent of 2000 ppm glutaraldehyde, initial and after heat-aging at 55° C. for 2 h or 24 h; for Glutaraldehyde concentration after pre-column derivatization by HPLC: acidic derivatization
Method: Samples of the AMPD-adduct and TA-adduct are analyzed for glutaraldehyde content. Samples are prepared in sterile deionized water at the molar equivalent of 2000 ppm glutaraldehyde. A standard of 500 ppm glutaraldehyde is also prepared. An initial measurement is taken just after sample preparation. Samples are then heat-aged at 55° C. for 2 h or 24 h and analyzed again. Glutaraldehyde concentration is measured directly via GC and after pre-column derivatization by HPLC.

[2] = test system: T. thermophilus; assay: Biocidal efficacy against thermophilic bacteria at 70° C.; type: cell-based; settings: for Kill of bacteria maintained over 21 days: equivalent to 50 ppm glutaraldehyde, 4 hr exposure between challenge and enumeration, weekly challenges over 21 days
Method: b. Thermophilic Bacteria. A 48-72 hour old culture of T. thermophilus is pelleted by centrifuging at 2000 g and the pellet resuspended in 10 times the culture volume of buffer (PBS or carbonate-buffered synthetic freshwater). The suspension is distributed into 10 mL aliquots in glass screw-cap tubes. Each tube is then treated with glutaraldehyde or an adduct and incubated at 70° C. At indicated timepoints, cell density in each tube is measured via dilution to extinction by serially diluting a sample and plating dilutions on solid media.

Row | SMILES | Glutaraldehyde concentration measured directly via GC [1] | Glutaraldehyde concentration after pre-column derivatization by HPLC [1] | Kill of bacteria maintained over 21 days [2] | Control of bacterial levels after 5 days ([2]; equivalent of 100 ppm glutaraldehyde, after 5 days)
1 | CC12COC3CCCC(OC1)N32 (centres unmarked) [AMPD-adduct, 2a-methyloctahydro-1,4-dioxa-2a1-azacyclopenta[cd]indene] | No glutaraldehyde is detected | low levels of glutaraldehyde | 4 log | 
2 | OCC12COC3CCCC(OC1)N32 (centres unmarked) [TA-adduct, (octahydro-1,4-dioxa-2a^1-azacyclopenta[cd]inden-2a-yl)methanol] | No glutaraldehyde is detected | low levels of glutaraldehyde | 4 log | 
3 | O=CCCCC=O [glutaraldehyde, reference compound] |  |  | 4 log | fails to control bacterial levels
